Experimental data from patent publication EP2313424B1, “ANIONIC PREGNANE COMPOUNDS, METHOD FOR THEIR PRODUCING AND USE OF THEM” (Ústav organické chemie a biochemie Akademie ved Ceské …, priority 2008, dated 2010).
Like-named read-outs stand apart in the source and are kept apart here.

Test system: NMDA receptor
Assay: Whole-cell voltage-clamp recording of NMDA-induced currents in cultured hippocampal neurons
Assay type: cell-based, rats
Conditions: for IC50: estimated from relative inhibition at 100 µM steroid with the logistic equation, apparent Hill coefficient 1.2, 100 µM NMDA; for mean inhibitory effect on NMDA-induced currents: 100 µM steroid, responses elicited by 100 µM NMDA
[1] = relative degree of inhibition by 100 µM steroid of current responses induced by fast application of 100 µM NMDA, cultured hippocampal neurons, holding potential -60 mV
[2] = cultured hippocampal neurons, holding potential -60 mV

Compound	IC50 (cultured hippocampal neurons) [µM]	Inhibition (X) [1]	Inhibition (X)	mean inhibitory effect on NMDA-induced currents [2] [%]	mean inhibitory effect on NMDA-induced currents (cultured hippocampal neurons, holding potential -60 mV, listed as 5β-pregnenolone sulfate) [%]
20-Oxo-5β-pregnan-3α,7α-diyl 3-Sulfate 7-Acetate Pyridinium Salt [Example 13]	186	34.1			
20-Oxo-5α-pregnane-3α,7α-diyl 3-Sulfate 7-Nicotinate Pyridinium Salt [Example 10]	154	37.8			
20-Oxo-5β-pregnane-3α,7α-diyl 3-Sulfate 7-Nicotinate Pyridinium Salt [Example 19]	116	46.9			
20-Oxo-5α-pregnane-3α,7α-diyl 3-Sulfate 7-Acetate Pyridinium Salt [Example 4]	167		35.2		
CC(=O)O[C@@H]1C[C@H]2C[C@H](OC(=O)CCC(=O)O)CC[C@]2(C)[C@H]2CC[C@]3(C)[C@@H](C(C)=O)CC[C@H]3[C@H]12 [Example 3, 20-Oxo-5α-pregnane-3α,7α-diyl 3-Hemisuccinate 7-Acetate]	384	17.4			
CC(=O)O[C@@H]1C[C@H]2C[C@H](OS(=O)(=O)[O-])CC[C@]2(C)[C@H]2CC[C@]3(C)[C@@H](C(C)=O)CC[C@H]3[C@H]12.[Na+] [Example 5, 20-Oxo-5α-pregnan-3α,7α-diyl 3-Sulfate 7-Acetate Sodium Salt]				17	
pregnanolone sulfate [reference compound]				71.3 ± 5.0	71
CC(=O)O[C@@H]1C[C@@H]2C[C@H](OC(=O)CCC(=O)O)CC[C@]2(C)[C@H]2CC[C@]3(C)[C@@H](C(C)=O)CC[C@H]3[C@H]12 [Example 12, 20-Oxo-5β-pregnane-3α,7α-diyl 3-Hemisuccinate 7-Acetate]	300	21.4			
